Here are results for 3 substances from patent US20040248275A1, “Engineered bacterial aggregates” (priority 2003, published 2004).

A value given as a limit tells only on which side of the number the result lay.

Type in all cases: cell-based
One assay has as its system Aeromonas hydrophila. Nature of the assay: QUAT susceptibility of single-species aggregates (survivors). Particulars: for No. of survivors after 20 minutes following treatment of 100 μm aggregate with 1 mM QUAT: 100 μm single species aggregate; for No. of survivors (%) at 20 min: 1 mM QUAT. As for the experimental part:
(§1) In another version of the present invention, one would test a biocide with the aggregates described above in the following manner: Volumes (1-10 mL) of customized aggregate suspensions, formed as described earlier, are held in suitable containers (microtitre plate well, mini-centrifuge tubes, pyrex glass test-tubes) to which are added appropriate concentrations of the test biocide (volume 5-25% of suspension volume). After a chosen contact times have elapsed (1-30 minutes) samples are removed to a neutralizer solution appropriate to the chosen biocide containing the antagonistic sugar (50 mM) for the chosen lectin (See Table 1). The aggregates disperse into single cell suspension that upon which simple plate count estimates of the viable surviving cell number may be conducted. Control experiments are conducted on disaggregated populations created by resuspending the customized aggregates in the antagonistic sugar (50 mM) prior to the addition of biocide.
(§2) Single species (Pseudomonas sp. 2881, Aeromonas hydrophila and Corynebacterium aquaticum) aggregates of 10, 50 and 100 μm in size were constructed and treated with different concentrations of three simple quaternary ammonium compounds (n-alkyl dimethyl benzyl ammonium chloride where n=12, 14 or 16).

Assay [1] relates to Corynebacterium aquaticum. The description is as above. The note with it: for No. of survivors after 20 minutes following treatment of 100 μm aggregate with 1 mM QUAT: 100 μm single species aggregate; for No. of survivors (%) at 20 min: 1 mM QUAT. On the procedure: as §1, §2
Assay [2] concerns Pseudomonas sp. 2881. The assay is described as above. Particulars: for No. of survivors after 20 minutes following treatment of 100 μm aggregate with 1 mM QUAT: 100 μm single species aggregate; for No. of survivors (%) at 20 min: 1 mM QUAT. As for the experimental part: as §1, §2
Another assay concerns A. hydrophila. The experiment in a line: QUAT susceptibility in structured multi-species aggregates (survivors). Particulars: 1 mM QUAT. As for the experimental part:
(§3) In another method of the present invention, one would form a multilamellar spherical aggregate in the following manner: In order to construct lamellar aggregates, aggregates of defined size should be prepared for the ‘core’ under XS (see i or ii above). Cores, either homogeneous or heterogeneous, are harvested by centrifugation (3000 g 10 minutes) and resuspended in the original volume of phosphate buffered saline (pH 7.1). Mix equal parts of the harvested core aggregates and a washed suspension of the ‘coating organism’ (1×10^7-5×10^8 cells/mL).
as §1
(§4) Binary lamellar aggregates were constructed for all combinations of the three test species. Core aggregate size was 50 microns diameter. Cores were coated with an equal number of the partner species. Each test species served as both core-aggregate and shell in these experiments. […] When the cells were aggregated prior to exposure to QUATs, then it became apparent that there was not only a protection afforded by aggregation but that the relative location of one species to the other affected the inactivation. Selected data is presented that compares inactivation of unordered (homogeneous) aggregates of two different species with ones where each of the partner organisms serves as either the core or shell to the other.

Another assay concerns C. aquaticum. Described as above. Particulars: 1 mM QUAT. As for the experimental part: as §3, §1, §4
In assay [3] the test system is Pseudomonas sp. 2881. Described as above. Particulars: 1 mM QUAT. As for the experimental part:
as §3, §1, §4

Where [4] appears, read: single-species aggregate Approx. 10 μm.
Where [5] appears, read: single-species aggregate Approx. 50 μm.
The mark [6] stands for this setting: single-species aggregate Approx. 100 μm.
Setting [7] is: 100 μm A. hydrophila - C. aquaticum aggregate, Unordered mixture.
[8] abbreviates: 100 μm Pseudomonas sp. 2881 - A. hydrophila aggregate, Unordered mixture.
The mark [9] stands for this setting: 100 μm aggregate, A. hydrophila shell, C. aquaticum core.
Where [10] appears, read: 100 μm aggregate, A. hydrophila shell, Pseudomonas sp. 2881 core.
[11] abbreviates: 100 μm aggregate, C. aquaticum shell, A. hydrophila core.
The mark [12] stands for this setting: 100 μm aggregate, Pseudomonas sp. 2881 shell, A. hydrophila core.
Where [13] appears, read: 100 μm Pseudomonas sp. 2881 - C. aquaticum aggregate, Unordered mixture.
The mark [14] stands for this setting: 100 μm aggregate, C. aquaticum shell, Pseudomonas sp. 2881 core.
Setting [15] is: 100 μm aggregate, Pseudomonas sp. 2881 shell, C. aquaticum core.

Take “n-alkyl dimethyl benzyl ammonium chloride [C16 QUAT]”: the “No. of survivors after 20 minutes following treatment of 100 μm aggregate with 1 mM QUAT” value (from here on “No. of survivors … with 1 mM QUAT”) turned out to be 0.594 in the assay on Aeromonas hydrophila, 0.266 in assay [1] and 0.724 with Pseudomonas sp. 2881 [2].

“n-alkyl dimethyl benzyl ammonium chloride [C14 QUAT]”: the “No. of survivors (%) at 20 min” value in the assay on Aeromonas hydrophila (No aggregate (free cells)) is under 0.00001%; in the assay with Aeromonas hydrophila (setting [4]), 0.0041%; with Aeromonas hydrophila (setting [5]), 0.0282%; in the assay with Aeromonas hydrophila (setting [6]), 0.4197%; in assay [1] (No aggregate (free cells)) it was under 0.00001%; in assay [1] (setting [4]), 0.0002%. Further, the “No. of survivors (%) at 20 min” value in assay [1] (setting [5]) was found to be 0.0027%; in assay [1] (setting [6]) it was 0.0829%; in the assay with Pseudomonas sp. 2881 [2] (No aggregate (free cells)), 0.001%; with Pseudomonas sp. 2881 [2] (setting [4]), 0.021%; in the assay on Pseudomonas sp. 2881 [2] (setting [5]) it was 0.0598%; in the assay on Pseudomonas sp. 2881 [2] (setting [6]) it was 0.5942%. Besides, the “No. of survivors … with 1 mM QUAT” value in the assay with Aeromonas hydrophila is reported as 0.420; in assay [1] it was 0.083; with Pseudomonas sp. 2881 [2] it was 0.594. Moreover, the “% No. survivors after 20 minutes” value is 0.172% with A. hydrophila (setting [7]); 0.112% in the assay on A. hydrophila (setting [8]); 0.131% with A. hydrophila (setting [9]); 0.0065% in the assay on A. hydrophila (setting [10]); 0.365% in the assay with A. hydrophila (setting [11]); 0.176% in the assay with A. hydrophila (setting [12]). Further, the “% No. survivors after 20 minutes” value in the assay with C. aquaticum (setting [7]) was 0.0364%; in the assay on C. aquaticum (setting [13]) it was 0.0412%; in the assay with C. aquaticum (setting [9]) it was 0.0457%; in the assay on C. aquaticum (setting [11]), over 0.001%; in the assay on C. aquaticum (setting [14]), over 0.001%; in the assay on C. aquaticum (setting [15]), 0.0698%. For the same substance, the “% No. survivors after 20 minutes” value in the assay with Pseudomonas sp. 2881 [3] (setting [8]) is reported as 0.241%; with Pseudomonas sp. 2881 [3] (setting [13]) it was 0.264%; in the assay with Pseudomonas sp. 2881 [3] (setting [10]), 0.319%; with Pseudomonas sp. 2881 [3] (setting [14]), 0.425%; with Pseudomonas sp. 2881 [3] (setting [12]), 0.147%; in the assay with Pseudomonas sp. 2881 [3] (setting [15]), 0.219%.

Turning to “n-alkyl dimethyl benzyl ammonium chloride [C12 QUAT]”, the figures for the “No. of survivors … with 1 mM QUAT” value (with Aeromonas hydrophila; in assay [1]; in the assay with Pseudomonas sp. 2881 [2]) were 0.635, 0.240 and 0.711, respectively.
